Data on 13 molecules can be found in patent EP0974354A1, “Artemisinin derivatives” (The Hong Kong University of Science & Technology, priority 1998, dated 2000).

For test [1], the system named is Plasmodium Falciparum W2 Strain (Chloroquine resistant). Kind of test: In vitro screening against Plasmodium falciparum, radiolabelled hypoxanthine incorporation, W2 strain. Type of test: cell-based. Particulars: for IC50 / IC90: Plasmodium falciparum; for IC50: read-out: In vitro activity: IC50, W2 Strain (Chloroquine resistant); for IC90: read-out: In vitro activity: IC90, W2 Strain (Chloroquine resistant). The protocol:
(§1) Two parasite strains - W2 resistant to chloroquine, and D6 sensitive to chloroquine but resistant to mefloquine were used.
(§2) The assay relies on incorporation of radiolabelled hypoxanthine by the parasite and inhibition of incorporation is attributed to activity of known or candidate antimalarial drugs. For each assay, proven antimalarials such as chloroquine, mefloquine, quinine, artemisinin and pyrimethamine were used as controls. The incubation period was 66 hours, and the starting parasitemia was 0.2% with 1% hematocrit. The medium was an RPMI-1640 culture with no folate or p-aminobenzoic acid. […] If a compound was submitted with no prior knowledge of activity, it was dissolved directly in dimethyl sulphoxide (DMSO), and diluted 400 fold with complete culture medium. […] These dilutions were performed automatically by a Biomek 1000 Liquid Handling System in 96-well microtiter plates. The diluted drugs were then transferred to test plates, 200 µl of parasitized erythrocytes were added, and incubated at 37°C in a controlled environment of 5% CO2, 5% O2 and 90% N2. After 42 hours, 25 µl of ^3H-hypoxanthine was added, and the plates incubated for an additional 24 hours. After 66 hours, the plates were frozen at -70°C to lyse the red cells, and then thawed and harvested onto glass fiber filter mats in a 96-well harvester. The filter mats were then counted in a scintillation counter.
(§3) A prescreen format can be used wherein a 3-dilution assay may be used to determine activity at high medium or low concentrations. The concentrations were selected as 50,000, 500 and 50 ng ml^-1. These were performed in duplicate on a 96-well format plate with 14 test compounds and one known (standard) compound per plate. The system was automated with a Biomek diluter for mixing and diluting the drugs, and adding drugs and parasites to a test plate.
(§4) In the prescreen format, if the […] […] If the AF has a ">", then the IC value is greater than the prescreen dilution value; thus "AF>250" means that the IC value is greater than 250 ng ml^-1 and no further screening is carried out. In such cases, values of 0.00 are entered for IC values.

The test system of test [2] is Plasmodium Falciparum D6 Strain (Chloroquine sensitive). Kind of test: In vitro screening against Plasmodium falciparum, radiolabelled hypoxanthine incorporation, D6 strain. The format is cell-based. The settings on record: for IC50 / IC90: Plasmodium falciparum. As for the experimental part:
as §1, §2, §3, §4

Test [3] concerns parasite of the genus Plasmodium. The experiment in a line: Antimalarial activity, general statement in the description, test not specified. The settings on record: qualitative statement.
[4] abbreviates: W2 Strain (Chloroquine resistant), 66 hours incubation, Albumax medium.
[5] abbreviates: D6 Strain (Chloroquine sensitive), 66 hours incubation, Albumax medium.
The mark [6] stands for this setting: W2, 66 h, 66 hours incubation, Albumax medium.
Where [7] appears, read: D6, 66 h, D6 Strain (Chloroquine sensitive), 66 hours incubation, Albumax medium, read-out: In vitro activity: IC50.
[8] abbreviates: D6, 66 h, D6 Strain (Chloroquine sensitive), 66 hours incubation, Albumax medium, read-out: In vitro activity: IC90.

Molecules are shown by their SMILES. ≈ marks a conversion by molar mass, not a printed value. Where “and” joins values, the source holds several entries; their conditions need not be identical. Identical values can stand only once. Like-named read-outs stand apart in the source and are kept apart here.

For `CC1CCC2C(C)C(OCc3ccc4ccccc4c3)OC3OC4(C)CCC1C32OO4` (single isomer, unassigned) [3(α-isomer), 10α-[(2'-naphthylmethyl)oxy]dihydroartemisinin], in test [1] (setting [4]), the “In vitro activity: (IC10)” value was 0.62 ng/mL, the “In vitro activity: IC50” value was found to be 1.54 ng/mL and the “In vitro activity: IC90” value is 3.83 ng/mL. In test [2] (setting [5]), the “In vitro activity: (IC10)” value is 0.93 ng/mL, the “In vitro activity: IC50” value was 1.24 ng/mL and the “In vitro activity: IC90” value worked out at 1.67 ng/mL.

Regarding `C[C@H]1[C@@H](OCc2ccc3ccccc3c2)O[C@@H]2O[C@@]3(C)CC[C@H]4[C@H](C)CC[C@@H]1[C@@]24OO3` [3(β-isomer), 10β-[(2'-naphthylmethyl)oxy]dihydroartemisinin], in test [1] (setting [6]), the IC50 turned out to be 0.64 ng/mL (≈ 1.51 nM) and the concentration for an effect of 90% (IC90) was 0.78 ng/mL (≈ 1.84 nM). Besides, in test [1] (W2, 66 h), the “In vitro activity: IC50” value amounted to 0.63 ng/mL and the “In vitro activity: IC90” value is 1.25 ng/mL. In test [2] (setting [5]), the “In vitro activity: (IC10)” value was 0.31 ng/mL and 0.51 ng/mL; the “In vitro activity: IC50” value was found to be 0.64 ng/mL; the “In vitro activity: IC90” value is 0.80 ng/mL. The concentration for half-maximal inhibition (IC50) in test [2] (setting [7]) is 0.4 ng/mL (≈ 0.942 nM). For the same molecule, the concentration for an effect of 90% (IC90) in test [2] (setting [8]) was determined as 0.53 ng/mL (≈ 1.25 nM).

Take `CC1CCC2C(C)C(Oc3ccnc4ccccc34)OC3OC4(C)CCC1C32OO4` (stereo not drawn) [10β-(4'-Quinolinoxy)dihydroartemisinin]: the antimalarial activity result in test [3] is “particularly interesting antimalarial activity”.

Regarding `C[C@H]1[C@H](OCc2cccc3ccccc23)O[C@@H]2O[C@@]3(C)CC[C@H]4[C@H](C)CC[C@@H]1[C@@]24OO3` [11(α-isomer)], in test [1] (setting [6]), the IC50 was determined as 0.67 ng/mL (≈ 1.58 nM) and the IC90 stood at 1.01 ng/mL (≈ 2.38 nM). In addition, in test [1] (W2, 66 h), the “In vitro activity: IC50” value is 0.70 ng/mL and the “In vitro activity: IC90” value worked out at 1.17 ng/mL. Besides, in test [2] (setting [5]), the “In vitro activity: (IC10)” value is 1.03 ng/mL and 1.20 ng/mL; the “In vitro activity: IC50” value came out at 1.47 ng/mL; the “In vitro activity: IC90” value is 1.81 ng/mL. The IC50 in test [2] (setting [7]) worked out at 1.42 ng/mL (≈ 3.34 nM). Further, the IC90 in test [2] (setting [8]) came to 1.97 ng/mL (≈ 4.64 nM).

Consider `C[C@H]1[C@@H](OCC(F)(F)F)O[C@@H]2O[C@@]3(C)CC[C@H]4[C@H](C)CC[C@@H]1[C@@]24OO3` [Example 1, 10β-[(2',2',2'-trifluoroethyl)oxy]dihydroartemisinin], for which the IC50 in test [1] (setting [6]) was 0.26 ng/mL (≈ 0.71 nM); in test [2] (D6, 66 h, read-out: In vitro activity: IC50), 0.77 ng/mL (≈ 2.1 nM). The “In vitro activity: (IC10)” value is 0.19 ng/mL and 0.20 ng/mL in test [1] (setting [4]); 0.57 ng/mL in test [2] (setting [5]). Further, in test [1] (setting [4]), the “In vitro activity: IC50” value amounted to 0.51 ng/mL. The concentration for an effect of 90% (IC90) in test [2] (D6, 66 h, read-out: In vitro activity: IC90) was 1.04 ng/mL (≈ 2.84 nM).

`C[C@H]1[C@@H](Oc2ccnc3cc(C(F)(F)F)ccc23)O[C@@H]2O[C@@]3(C)CC[C@H]4[C@H](C)CC[C@@H]1[C@@]24OO3` [Example 2, 10β-[4'-(7'-trifluoromethylquinolinoxy)]dihydroartemisinin]: the IC50 worked out at 0.67 ng/mL (≈ 1.4 nM) in test [1] (setting [6]) and 0.71 ng/mL (≈ 1.48 nM) in test [2] (setting [7]). In addition, the results for the IC90 in test [1] (setting [6]) and in test [2] (setting [8]) were 0.81 ng/mL (≈ 1.69 nM) and 0.93 ng/mL (≈ 1.94 nM), respectively. Besides, the “In vitro activity: (IC10)” value is 0.56 ng/mL in test [1] (W2, 66 h) and 0.55 ng/mL in test [2] (setting [5]). For the same molecule, in test [3], the antimalarial activity entry is listed as “particularly interesting antimalarial activity”.

Regarding `C[C@H]1[C@@H](OCc2ccccc2F)O[C@@H]2O[C@@]3(C)CC[C@H]4[C@H](C)CC[C@@H]1[C@@]24OO3` [Example 8], the values for the half-inhibitory concentration (IC50) in test [1] (setting [6]) and in test [2] (setting [7]) were 0.83 ng/mL (≈ 2.11 nM) and 0.75 ng/mL (≈ 1.91 nM), respectively. Further, the values for the IC90 in test [1] (setting [6]) and in test [2] (setting [8]) were 1.08 ng/mL (≈ 2.75 nM) and 1.22 ng/mL (≈ 3.11 nM), respectively. In addition, the “In vitro activity: (IC10)” value turned out to be 0.63 ng/mL in test [1] (W2, 66 h) and 0.46 ng/mL in test [2] (setting [5]).

For `C[C@H]1[C@@H](OCc2cccc(F)c2)O[C@@H]2O[C@@]3(C)CC[C@H]4[C@H](C)CC[C@@H]1[C@@]24OO3` [Example 9], the IC50 came out at 0.45 ng/mL (≈ 1.15 nM) in test [1] (setting [6]) and 0.36 ng/mL (≈ 0.917 nM) in test [2] (setting [7]). Moreover, the 90% effect concentration (IC90) was determined as 0.59 ng/mL (≈ 1.5 nM) in test [1] (setting [6]) and 1.7 ng/mL (≈ 4.33 nM) in test [2] (setting [8]). Besides, the “In vitro activity: (IC10)” value in test [1] (W2, 66 h) was 0.35 ng/mL; in test [2] (setting [5]), 0.08 ng/mL.

Regarding `C[C@H]1[C@@H](OCc2ccc(F)cc2)O[C@@H]2O[C@@]3(C)CC[C@H]4[C@H](C)CC[C@@H]1[C@@]24OO3` [Example 10], the figures for the IC50 in test [1] (setting [6]) and in test [2] (setting [7]) were 0.25 ng/mL (≈ 0.637 nM) and 0.34 ng/mL (≈ 0.866 nM), respectively. In addition, the IC90 in test [1] (setting [6]) worked out at 0.86 ng/mL (≈ 2.19 nM); in test [2] (setting [8]), 0.58 ng/mL (≈ 1.48 nM). The “In vitro activity: (IC10)” value in test [1] (W2, 66 h) is 0.07 ng/mL; in test [2] (setting [5]), 0.20 ng/mL.

Regarding `C[C@H]1[C@@H](OCc2c3ccccc3cc3ccccc23)O[C@@H]2O[C@@]3(C)CC[C@H]4[C@H](C)CC[C@@H]1[C@@]24OO3` [Example 12], in test [1] (setting [6]), the IC50 was 132 ng/mL (≈ 277 nM) and the IC90 was found to be 173 ng/mL (≈ 365 nM). Besides, in test [1] (W2, 66 h), the “In vitro activity: IC50” value amounted to 187.76 ng/mL and the “In vitro activity: IC90” value was determined as 301.34 ng/mL. Moreover, the “In vitro activity: (IC10)” value in test [2] (D6, 66 h) was determined as 102.79 ng/mL. Further, the IC50 in test [2] (D6, 66 h, read-out: In vitro activity: IC50, D6 Strain (Chloroquine sensitive), 66 hours incubation, Albumax medium) worked out at 136 ng/mL (≈ 286 nM). The IC90 in test [2] (D6, 66 h, read-out: In vitro activity: IC90, D6 Strain (Chloroquine sensitive), 66 hours incubation, Albumax medium) turned out to be 179 ng/mL (≈ 378 nM).

`C[C@H]1[C@@H](OCc2cccc3c2ccc2ccccc23)O[C@@H]2O[C@@]3(C)CC[C@H]4[C@H](C)CC[C@@H]1[C@@]24OO3` [Example 13]: the IC50 worked out at 0.62 ng/mL (≈ 1.31 nM) in test [1] (setting [6]) and 0.58 ng/mL (≈ 1.22 nM) in test [2] (setting [7]). The IC90 in test [1] (setting [6]) was 0.79 ng/mL (≈ 1.66 nM); in test [2] (setting [8]) it was 0.77 ng/mL (≈ 1.62 nM). Further, the “In vitro activity: (IC10)” value in test [1] (W2, 66 h) stood at 0.50 ng/mL; in test [2] (setting [5]), 0.44 ng/mL.

As for `C[C@H]1[C@@H](OCc2ccc3ccc4cccc5ccc2c3c45)O[C@@H]2O[C@@]3(C)CC[C@H]4[C@H](C)CC[C@@H]1[C@@]24OO3` [Example 14], the results for the IC50 in test [1] (setting [6]) and in test [2] (setting [7]) were 17.2 ng/mL (≈ 34.5 nM) and 37.9 ng/mL (≈ 76.1 nM), respectively. Moreover, the IC90 worked out at 24.9 ng/mL (≈ 49.9 nM) in test [1] (setting [6]) and 49.5 ng/mL (≈ 99.2 nM) in test [2] (setting [8]). The “In vitro activity: (IC10)” value in test [1] (W2, 66 h) is 11.90 ng/mL; in test [2] (setting [5]), 29.09 ng/mL.

`C[C@H]1[C@@H](Oc2ccnc3ccccc23)O[C@@H]2O[C@@]3(C)CC[C@H]4[C@H](C)CC[C@@H]1[C@@]24OO3` [Example 15]: the figures for the IC50 in test [1] (setting [6]) and in test [2] (setting [7]) were 1.24 ng/mL (≈ 3.01 nM) and 0.43 ng/mL (≈ 1.04 nM), respectively. Also, the IC90 in test [1] (setting [6]) turned out to be 6.45 ng/mL (≈ 15.7 nM); in test [2] (setting [8]), 0.8 ng/mL (≈ 1.94 nM). Moreover, the “In vitro activity: IC50” value in test [1] (W2, 66 h) is 2.03 ng/mL; in test [2] (setting [5]), 0.61 ng/mL. Further, the “In vitro activity: IC90” value worked out at 9.11 ng/mL in test [1] (W2, 66 h) and 0.91 ng/mL in test [2] (setting [5]). The “In vitro activity: (IC10)” value in test [2] (setting [5]) was 0.23 ng/mL and 0.41 ng/mL.

One may read the IC50 as the midpoint of a concentration-inhibition curve. Usually IC90 stands for the concentration at which the effect reaches the 90% level.
